Where two headings read alike, the source gives them in different places.

One series can be described thus: in vitro. It is filed as cell-based. To be noted: human, three days incubation. On the procedure:
(§1) All compounds were tested in an HCV reporter replicon assay. Briefly, a reporter replicon containing Huh-7 hepatoma cells was grown in DMEM (Invitrogen, Carlsbad, Calif.) and seeded in 96-well black wall, clear-bottom plates (Costar®; Coming Incorporated). Cells were allowed to settle at 37° C., 5% CO2 for 30 minutes. The compounds were serially diluted in separate 96 well plates and […] of each concentration was added to the appropriate well in triplicate. The plates are incubated at 37° C., 5% CO2 for three days.
(§2) Following three days of incubation, the media was aspirated from the wells and cells are washed with 100 μl PBS. After removing the PBS, 20 μl of 1× Passive Lysis Buffer (Promega Corp., Madison, Wis.) is added to each well, and the cells are allowed to lyse at room temperature for 15 minutes. Antiviral activity and cytotoxicity is measured following lysis using the dual luciferase kit (Promega Corp., Madison, Wis.). The percent antiviral inhibition and percent cytotoxicity for each concentration is calculated after subtracting the background values of media only wells from wells containing cells, and subtratcting 100 from the percent ratio of the value in the compound well to the cell only control well.

Series [1] in a line: Solubility (Sol.) reported with the replicon assay. On the technique in general: In antiviral work, replicon cells carry a viral genome segment that copies itself.
For a further series, the system named is HCV reporter replicon. In words: HCV reporter replicon assay, antiviral activity (dual luciferase). Conditions: for EC50: Hepatitis C virus. The class given is cell-based. As for the experimental part: as §1, §2
Setting [2] is: 7-pt Assay, value marked (exp), read-out: EC50 (exp).
Where [3] appears, read: Huh-7, 72 h, Extended 8-pt Assay, replicon-containing Huh-7 cells, three days incubation, read-out: EC50.
[4] abbreviates: Huh-7, 72 h, 7-pt Assay, replicon-containing Huh-7 cells, three days incubation, read-out: EC50.

The term CC50 denotes the concentration at which the toxic effect on the cells reaches its halfway point. A word on the EC50: it is the midpoint of the concentration-response curve. Turning to `O=C(NO)[C@H]1CCCC[C@@H]1SCCc1ccc(-c2ccccc2)cc1` (relative stereo) [Example 6, trans-2-(Biphenyl-4-yl-ethylsulfanyl)cyclohexanecarboxylic Acid Hydroxyamide], the CC50 at 3 days in the series “in vitro” (7-pt Assay) came to 111000 nM; in “in vitro” (Extended 8-pt Assay), 99000 nM. Also, the Sol. in series [1] (7-pt Assay) was over 320 µM; in series [1] (7-pt Assay, unit not given), 320; in series [1] (Extended 8-pt Assay), over 320 µM. The compound also returned a CC50/EC50 in the series on HCV reporter replicon (7-pt Assay) of 3265. Moreover, the EC50 was determined as 34 nM in the series on HCV reporter replicon (setting [2]) and 50 nM in the series with HCV reporter replicon (setting [3]).
`CC(C)(C)OC(=O)N1CCN(S(=O)(=O)c2ccc(Oc3ccccn3)cc2)[C@@H](C(=O)NO)C1` [Example 10, tert-butyl (3R)-3-[(hydroxyamino)carbonyl]-4-{[4-(pyridin-2-yloxy)phenyl]sulfonyl}piperazine-1-carboxylate]: the CC50 at 3 days stood at 294000 nM in the series “in vitro” (7-pt Assay) and 224000 nM in the series “in vitro” (Extended 8-pt Assay). For the same compound, the Sol. was over 320 µM in series [1] (7-pt Assay); 320 in series [1] (7-pt Assay, unit not given); over 320 µM in series [1] (Extended 8-pt Assay). In addition, the CC50/EC50 with HCV reporter replicon (7-pt Assay) came out at 1937. The EC50 in the series with HCV reporter replicon (setting [2]) was 150 nM; with HCV reporter replicon (setting [3]), 190 nM.
Consider `CC(=O)N1CCN(S(=O)(=O)c2ccc(Oc3ccccc3)cc2)C(C(=O)NO)C1` (stereo not shown) [Example 9, 4-acetyl-N-hydroxy-1-[(4-phenoxyphenyl)sulfonyl]piperazine-2-carboxamide], for which the values for the CC50 at 3 days in “in vitro” (7-pt Assay) and in the series “in vitro” (Extended 8-pt Assay) were 81000 nM and 79000 nM, respectively. In addition, the Sol. in series [1] (7-pt Assay) is over 320 µM; in series [1] (7-pt Assay, unit not given), 320; in series [1] (Extended 8-pt Assay) it was over 320 µM. The CC50/EC50 in the series on HCV reporter replicon (7-pt Assay) amounted to 835. In addition, the results for the EC50 in the series with HCV reporter replicon (setting [2]) and in the series with HCV reporter replicon (setting [3]) were 97 nM and 18 nM, respectively.
Regarding `CC1(C)SCCN(S(=O)(=O)c2ccc(Oc3ccncc3)cc2)[C@H]1C(=O)NO` [Example 12, (3S)—N-hydroxy-2,2-dimethyl-4-{[4-(pyridin-4-yloxy)phenyl]sulfonyl}thiomorpholine-3-carboxamide], the results for the 50% cytotoxic concentration (CC50) at 3 days in the series “in vitro” (7-pt Assay) and in “in vitro” (Extended 8-pt Assay) were 320000 nM and over 320000 nM, respectively. Also, the Sol. in series [1] (7-pt Assay) was over 320 µM; in series [1] (7-pt Assay, unit not given), 320; in series [1] (Extended 8-pt Assay), over 320 µM. Besides, the CC50/EC50 in the series on HCV reporter replicon (7-pt Assay) was 880. The figures for the EC50 with HCV reporter replicon (setting [4]) and in the series on HCV reporter replicon (setting [3]) were 360 nM and 260 nM, respectively.
With `O=C(NO)[C@@H]1CCCC[C@H]1S(=O)(=O)CCc1ccccc1` [Example 5, trans-2-Phenylethanesulfonyl-cyclohexanecarboxylic Acid Hydroxyamide], the CC50 at 3 days in “in vitro” (7-pt Assay) and in the series “in vitro” (Extended 8-pt Assay) was over 320000 nM throughout. For the same compound, the Sol. in series [1] (7-pt Assay) is over 320 µM; in series [1] (7-pt Assay, unit not given) it was 320; in series [1] (Extended 8-pt Assay), over 320 µM. Further, the CC50/EC50 in the series on HCV reporter replicon (7-pt Assay) is 1333. Further, the EC50 is 240 nM in the series with HCV reporter replicon (setting [2]) and 310 nM with HCV reporter replicon (setting [3]).
Turning to `O=C(NO)C1CCCCN1S(=O)(=O)c1ccc(Sc2ccncc2)cc1` (stereo not shown) [Example 13, N-hydroxy-1{[4-(pyridin-4-ylthio)phenyl]sulfonyl}piperidine-2-carboxamide], the CC50 at 3 days amounted to 293000 nM in “in vitro” (7-pt Assay) and 211000 nM in the series “in vitro” (Extended 8-pt Assay). The Sol. in series [1] (7-pt Assay) was over 320 µM; in series [1] (7-pt Assay, unit not given), 320; in series [1] (Extended 8-pt Assay) it was over 320 µM. For the same compound, the CC50/EC50 in the series with HCV reporter replicon (7-pt Assay) was 667. Besides, the EC50 with HCV reporter replicon (setting [4]) amounted to 440 nM; with HCV reporter replicon (setting [3]) it was 350 nM.
As to `O=C(NO)[C@@H]1CCCC[C@@H]1SCCc1ccccc1` [Example 3], the CC50 at 3 days is at least 320000 nM in “in vitro” (7-pt Assay) and 211000 nM in the series “in vitro” (Extended 8-pt Assay). Also, the Sol. in series [1] (7-pt Assay) is over 320 µM; in series [1] (7-pt Assay, unit not given), 320; in series [1] (Extended 8-pt Assay), over 320 µM. For the same compound, in the series on HCV reporter replicon (7-pt Assay), the CC50/EC50 is 130. Further, the values for the EC50 with HCV reporter replicon (setting [4]) and with HCV reporter replicon (setting [3]) were 2500 nM and 1900 nM, respectively.
Take `COC(=O)c1ccc(NC(=O)[C@H](CC(C)C)NC(=O)[C@@H](CC(=O)NO)c2ccccc2)cc1` [Example 8, methyl 4-({N-[(2S)-4-(hydroxyamino)-4-oxo-2-phenylbutanoyl]-L-leucyl}amino)benzoate]: the CC50 at 3 days in “in vitro” (7-pt Assay) and in “in vitro” (Extended 8-pt Assay) was over 320000 nM each time. The Sol. in series [1] (7-pt Assay) is under 100 µM; in series [1] (7-pt Assay, unit not given), 32; in series [1] (Extended 8-pt Assay), under 320 µM. Besides, in the series on HCV reporter replicon (7-pt Assay), the CC50/EC50 is 218. Also, the EC50 in the series on HCV reporter replicon (setting [4]) worked out at 1500 nM; in the series with HCV reporter replicon (setting [3]) it was 1200 nM.
On to `Cc1cc(CSC(C)(C)[C@@H](NS(=O)(=O)c2ccc(Oc3ccc(Br)cc3)cc2)C(=O)NO)no1` [Example 14, N^2-{[4-(4-bromophenoxy)phenyl]sulfonyl}-N^1-hydroxy-3{[(5-methylisoxazol-3-yl)methyl]thio}-D-valinamide], for which the figures for the CC50 at 3 days in the series “in vitro” (7-pt Assay) and in the series “in vitro” (Extended 8-pt Assay) were 78000 nM and 41000 nM, respectively. The Sol. in series [1] (7-pt Assay) was over 320 µM; in series [1] (7-pt Assay, unit not given) it was 320; in series [1] (Extended 8-pt Assay) it was under 320 µM. The compound also yielded a CC50/EC50 in the series on HCV reporter replicon (7-pt Assay) of 49. Also, the EC50 in the series with HCV reporter replicon (setting [4]) is 1570 nM; in the series with HCV reporter replicon (setting [3]), 1900 nM.
For the compound `CS(=O)(=O)N1CCN(S(=O)(=O)c2ccc(Oc3ccc(F)cc3)cc2)[C@@H](C(=O)NO)C1` [Example 11, (2R)-1-{[4-(4-fluorophenoxy)phenyl]sulfonyl}-N-hydroxy-4-(methylsulfonyl)piperazine-2-carboxamide], the 50% cytotoxic concentration (CC50) at 3 days in the series “in vitro” (7-pt Assay) was 12000 nM; in the series “in vitro” (Extended 8-pt Assay), 15000 nM. The Sol. in series [1] (7-pt Assay) was over 320 µM; in series [1] (7-pt Assay, unit not given) it was 320; in series [1] (Extended 8-pt Assay) it was over 320 µM. In the series with HCV reporter replicon (7-pt Assay), this compound had a CC50/EC50 of 444. The half-maximal effective concentration (EC50) with HCV reporter replicon (setting [2]) amounted to 27 nM; with HCV reporter replicon (setting [3]), 49 nM.
On to `O=C(NO)C1=C(SCCc2ccc(-c3ccccc3)cc2)CCCC1` [Example 1, 2-(2-Biphenyl-4-yl-ethylsulfanyl)-cyclohex-1-ene-carboxylic Acid Hydroxyamide], for which the CC50 at 3 days worked out at 32000 nM in the series “in vitro” (7-pt Assay) and 31000 nM in the series “in vitro” (Extended 8-pt Assay). Also, the Sol. was under 320 µM in series [1] (7-pt Assay); 100 in series [1] (7-pt Assay, unit not given); over 320 µM in series [1] (Extended 8-pt Assay). For the same compound, the CC50/EC50 in the series on HCV reporter replicon (7-pt Assay) stood at 15. Besides, the EC50 is 2100 nM in the series with HCV reporter replicon (setting [4]) and 1600 nM in the series with HCV reporter replicon (setting [3]).
